Molecules are shown by their SMILES.

This assay deals with T1, hMC2 receptor (crude hMC2R membranes from CRE-bla-CHO-K1 cells stably expressing hMC2 receptor and hMRAP accessory protein) (Homo sapiens, UniProt Q01718).
T1 construct: crude membrane fractions
T1 sequence (Q01718 whole entry): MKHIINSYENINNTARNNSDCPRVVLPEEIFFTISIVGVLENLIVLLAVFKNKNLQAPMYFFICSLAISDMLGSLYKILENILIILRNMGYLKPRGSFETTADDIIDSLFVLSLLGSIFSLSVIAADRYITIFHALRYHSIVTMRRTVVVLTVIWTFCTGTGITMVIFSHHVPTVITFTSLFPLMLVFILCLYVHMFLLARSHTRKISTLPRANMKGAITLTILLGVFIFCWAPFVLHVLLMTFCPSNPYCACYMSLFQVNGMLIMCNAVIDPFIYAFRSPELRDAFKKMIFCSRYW
T1 sequence (Q8TCY5 whole entry partner): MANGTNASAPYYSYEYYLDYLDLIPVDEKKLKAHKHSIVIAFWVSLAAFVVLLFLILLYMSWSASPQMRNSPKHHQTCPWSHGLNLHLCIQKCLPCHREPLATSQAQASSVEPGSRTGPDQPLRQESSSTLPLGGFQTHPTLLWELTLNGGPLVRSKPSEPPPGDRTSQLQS
As to the kind of experiment: hMC2 membrane binding assay ([125I]ACTH (1-39) Tyr23, SPA). Particulars: displacement of 0.2 nM [125I]ACTH (1-39) Tyr23 from hMC2R membranes, 1.5 hours at room temperature; read-out: MC2R binding potency. Put shortly:
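Ki values come from non-linear regression of SPA scintillation counts, with compounds displacing [125I]ACTH(1-39) Tyr23. Membranes come from CRE-bla-CHO-K1 cells stably expressing hMC2 receptor together with hMRAP. They are preincubated with WGA-coated PVT SPA beads in 50 mM HEPES pH 7.4 with 0.20% BSA, Mg2+, Ca2+ and protease inhibitors.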
For the compound `Cc1cccnc1-c1ccc(C2(C(=O)N[C@@H]3CCN(C)C3)CCN(c3ccc(C(F)(F)F)cc3C#N)CC2)cn1` [Compound 1-177, 1-[2-cyano-4-(trifluoromethyl)phenyl]-4-{3′-methyl-[2,2′-bipyridin]-5-yl}-N-[(3R)-1-methylpyrrolidin-3-yl]piperidine-4-carboxamide], the Ki lay in the range of 100 to 1000 nM.

`CCOc1ncccc1-c1ccc(C2(NC(=O)[C@H]3CCN(C)C3)CCN(c3ccc(C(F)(F)F)cc3C#N)CC2)cn1` [Compound 2-9, (3S)—N-{1-[2-cyano-4-(trifluoromethyl)phenyl]-4-{2′-ethoxy-[2,3′-bipyridin]-5-yl}piperidin-4-yl}-1-methylpyrrolidine-3-carboxamide]: the Ki was below 10 nM.

For `CN1CC[C@@H](NC(=O)C2(c3ccc(-c4ccccc4C4CC4)nc3)CCN(c3ccc(C(F)(F)F)cc3C#N)CC2)C1` [Compound 1-113, 1-[2-cyano-4-(trifluoromethyl)phenyl]-4-[6-(2-cyclopropylphenyl)pyridin-3-yl]-N-[(3R)-1-methylpyrrolidin-3-yl]piperidine-4-carboxamide], the Ki is below 10 nM.

As to `Cn1cccc1-c1ccc(C2(C(=O)N[C@@H]3C[C@@H]3N)CCN(c3ccc(C(F)(F)F)cc3C#N)CC2)cn1` (racemic) [Compound 1-258, rac-N-[(1R,2S)-2-aminocyclopropyl]-1-[2-cyano-4-(trifluoromethyl)phenyl]-4-[6-(1-methyl-1H-pyrrol-2-yl)pyridin-3-yl]piperidine-4-carboxamide], the Ki was below 10 nM.

As to `COc1ccccc1-c1ncc(C2(C(=O)NCCCN(C)C)CCN(c3ccc(C(F)(F)F)cc3C#N)CC2)cc1F` [Compound 1-199, 1-[2-cyano-4-(trifluoromethyl)phenyl]-N-[3-(dimethylamino)propyl]-4-[5-fluoro-6-(2-methoxyphenyl)pyridin-3-yl]piperidine-4-carboxamide], the Ki was below 10 nM.

Regarding `CCOc1ncccc1-c1ccc(C2(C(=O)NC[C@H](C)N)CCN(c3ccc(C(F)(F)F)cc3C#N)CC2)cc1` [Compound 1-6, N-[(2S)-2-aminopropyl]-1-[2-cyano-4-(trifluoromethyl)phenyl]-4-[4-(2-ethoxypyridin-3-yl)phenyl]piperidine-4-carboxamide], the Ki was in the range of 10 to 100 nM.

For the compound `CCOc1ncccc1-c1ncc(C2(C(=O)N[C@@H](C)CN(C)C)CCN(c3ccc(C(F)(F)F)cc3F)CC2)cc1F` [Compound 1-312, N-[(2S)-1-(dimethylamino)propan-2-yl]-4-{2′-ethoxy-3-fluoro-[2,3′-bipyridin]-5-yl}-1-[2-fluoro-4-(trifluoromethyl)phenyl]piperidine-4-carboxamide], the Ki is below 10 nM.

As to `CN1CC[C@H](NC(=O)C2(c3ccc(-c4cccn4C)nn3)CCN(c3ccc(C(F)(F)F)cc3C#N)CC2)C1` [Compound 1-168, 1-[2-cyano-4-(trifluoromethyl)phenyl]-4-[6-(1-methyl-1H-pyrrol-2-yl)pyridazin-3-yl]-N-[(3S)-1-methylpyrrolidin-3-yl]piperidine-4-carboxamide], the Ki is below 10 nM.

On to `CCOc1ncccc1-c1ccc(C2(NC(=O)O[C@@H]3CCN(C)C3)CCN(c3ccc(C(F)(F)F)cc3C#N)CC2)cc1` [Compound 2-12, (3R)-1-methylpyrrolidin-3-yl N-{1-[2-cyano-4-(trifluoromethyl)phenyl]-4-[4-(2-ethoxypyridin-3-yl)phenyl]piperidin-4-yl}carbamate], for which the Ki was 10 to 100 nM.

As to `CNC[C@H](C)NC(=O)C1(c2ccc(-c3cccnc3OC)nc2)CCN(c2ccc(C(F)(F)F)cc2Cl)CC1` [Compound 1-307, 1-[2-chloro-4-(trifluoromethyl)phenyl]-4-{2′-methoxy-[2,3′-bipyridin]-5-yl}-N-[(2S)-1-(methylamino)propan-2-yl]piperidine-4-carboxamide], the Ki was below 10 nM.

As to `CCOc1ccccc1-c1ncc(C2(C(=O)N[C@H]3CCN(C)C3)CCN(c3ccc(C(F)(F)F)nc3C#N)CC2)cc1F` [Compound 1-125, 1-[2-cyano-6-(trifluoromethyl)pyridin-3-yl]-4-[6-(2-ethoxyphenyl)-5-fluoropyridin-3-yl]-N-[(3S)-1-methylpyrrolidin-3-yl]piperidine-4-carboxamide], the Ki was below 10 nM.

Turning to `Cn1cccc1-c1ccc(C2(NC(=O)[C@H]3CCNC3)CCN(c3ccc(C(F)(F)F)cc3C#N)CC2)cn1` [Compound 2-44, (3S)—N-{1-[2-cyano-4-(trifluoromethyl)phenyl]-4-[6-(1-methyl-1H-pyrrol-2-yl)pyridin-3-yl]piperidin-4-yl}pyrrolidine-3-carboxamide], the Ki was below 10 nM.

For the compound `CCOc1ccccc1-c1ccc(C2(C(=O)NC3CN(C)C3)CCN(c3ccc(C(F)(F)F)cc3C#N)CC2)nn1` [Compound 1-136, 1-[2-cyano-4-(trifluoromethyl)phenyl]-4-[6-(2-ethoxyphenyl)pyridazin-3-yl]-N-(1-methylazetidin-3-yl)piperidine-4-carboxamide], the Ki was below 10 nM.

For `CN1CC[C@H](NC(=O)C2(c3ccc(-c4cccn4C)nn3)CCN(c3ccc(C(F)(F)F)cc3F)CC2)C1` [Compound 1-171, 1-[2-fluoro-4-(trifluoromethyl)phenyl]-4-[6-(1-methyl-1H-pyrrol-2-yl)pyridazin-3-yl]-N-[(3S)-1-methylpyrrolidin-3-yl]piperidine-4-carboxamide], the Ki is below 10 nM.

With `CCc1ccccc1-c1ccc(C2(C(=O)N[C@H]3CCN(C)C3)CCN(c3ccc(C(F)(F)F)cc3C#N)CC2)cn1` [Compound 1-104, 1-[2-cyano-4-(trifluoromethyl)phenyl]-4-[6-(2-ethylphenyl)pyridin-3-yl]-N-[(3S)-1-methylpyrrolidin-3-yl]piperidine-4-carboxamide], the Ki is below 10 nM.

Regarding `CCOc1ncccc1-c1ccc(C2(C(=O)N[C@H]3CCN(C)C3)CCN(c3ccc(C(F)(F)F)nc3C#N)CC2)cn1` [Compound 1-26, 1-[2-cyano-6-(trifluoromethyl)pyridin-3-yl]-4-{2′-ethoxy-[2,3′-bipyridin]-5-yl}-N-[(3S)-1-methylpyrrolidin-3-yl]piperidine-4-carboxamide], the Ki was below 10 nM.

Consider `CCOc1ccccc1-c1ccc(C2(C(=O)N[C@H]3CCN(C)C3)CCN(c3ccc(C(F)(F)F)cc3Cl)CC2)cn1` [Compound 1-97, 1-[2-chloro-4-(trifluoromethyl)phenyl]-4-[6-(2-ethoxyphenyl)pyridin-3-yl]-N-[(3S)-1-methylpyrrolidin-3-yl]piperidine-4-carboxamide], for which the Ki is below 10 nM.

Regarding `CCOc1ncccc1-c1ccc(C2(NC(=O)CN(C)C)CCN(c3ccc(Cl)cc3C#N)CC2)cn1` [Compound 2-38, N-[1-(4-chloro-2-cyanophenyl)-4-{2′-ethoxy-[2,3′-bipyridin]-5-yl}piperidin-4-yl]-2-(dimethylamino)acetamide], the Ki was below 10 nM.

Consider `CCn1nccc1-c1ccc(C2(C(=O)N[C@@H]3CCN(C)C3)CCN(c3ccc(C(F)(F)F)cc3C#N)CC2)cn1` [Compound 1-62, 1-[2-cyano-4-(trifluoromethyl)phenyl]-4-[6-(1-ethyl-1H-pyrazol-5-yl)pyridin-3-yl]-N-[(3R)-1-methylpyrrolidin-3-yl]piperidine-4-carboxamide], for which the Ki is below 10 nM.

With `COc1ncc(F)cc1-c1ncc(C2(C(=O)N[C@H]3CCN(C)C3)CCN(c3ccc(C(F)(F)F)cc3F)CC2)cc1F` [Compound 1-210, 4-{3,5′-difluoro-2′-methoxy-[2,3′-bipyridin]-5-yl}-1-[2-fluoro-4-(trifluoromethyl)phenyl]-N-[(3S)-1-methylpyrrolidin-3-yl]piperidine-4-carboxamide], the Ki was below 10 nM.

`CCOc1ncccc1-c1ccc(C2(C(=O)N[C@H]3CCN(C)C3)CCN(c3ncc(C(F)(F)F)cc3Cl)CC2)cn1` [Compound 1-150, 1-[3-chloro-5-(trifluoromethyl)pyridin-2-yl]-4-{2′-ethoxy-[2,3′-bipyridin]-5-yl}-N-[(3S)-1-methylpyrrolidin-3-yl]piperidine-4-carboxamide]: the Ki fell in the range of 10 to 100 nM.

For the compound `Cn1cccc1-c1ccc(C2(C(=O)N[C@H]3CN4CCC3CC4)CCN(c3ccc(C(F)(F)F)cc3C#N)CC2)cn1` [Compound 1-188, N-[(3R)-1-azabicyclo[2.2.2]octan-3-yl]-1-[2-cyano-4-(trifluoromethyl)phenyl]-4-[6-(1-methyl-1H-pyrrol-2-yl)pyridin-3-yl]piperidine-4-carboxamide], the Ki was 10 to 100 nM.

As to `Cn1cccc1-c1ccc(C2(C(=O)N[C@H]3C[C@H](N)C3)CCN(c3ccc(C(F)(F)F)cc3C#N)CC2)cn1` [Compound 1-234, 1-[2-cyano-4-(trifluoromethyl)phenyl]-4-[6-(1-methyl-1H-pyrrol-2-yl)pyridin-3-yl]-N-[(1R,3R)-3-aminocyclobutyl]piperidine-4-carboxamide], the Ki lay in the range of 10 to 100 nM.

As for `CCOc1ccccc1-c1ccc(C2(C(=O)NCCN(C)C)CCN(c3ccc(C(F)(F)F)cc3Cl)CC2)cn1` [Compound 1-228, 1-[2-chloro-4-(trifluoromethyl)phenyl]-N-[2-(dimethylamino)ethyl]-4-[6-(2-ethoxyphenyl)pyridin-3-yl]piperidine-4-carboxamide], the Ki is below 10 nM.

As to `CCOc1ncccc1-c1ncc(C2(C(=O)NCCNC)CCN(c3ccc(C(F)(F)F)cc3C#N)CC2)cc1F` [Compound 1-311, 1-[2-cyano-4-(trifluoromethyl)phenyl]-4-{2′-ethoxy-3-fluoro-[2,3′-bipyridin]-5-yl}-N-[2-(methylamino)ethyl]piperidine-4-carboxamide], the Ki was below 10 nM.

Turning to `CCOc1ncccc1-c1ccc(C2(NC(=O)[C@H]3CCNC3)CCN(c3ccc(C(F)(F)F)cc3C#N)CC2)cn1` [Compound 2-8, (3S)—N-{1-[2-cyano-4-(trifluoromethyl)phenyl]-4-{2′-ethoxy-[2,3′-bipyridin]-5-yl}piperidin-4-yl}pyrrolidine-3-carboxamide], the Ki was below 10 nM.

(Values after US12492181B2, “Gem-disubstituted piperidine melanocortin subtype-2 receptor (MC2R) antagonists and uses thereof” (Crinetics Pharmaceuticals, Inc., priority 2019, dated 2025).)
